Where two headings read alike, the source gives them in different places.
Key:
ALK = ALK (Homo sapiens (Human), UniProt Q9UM73); test: In vitro kinase activity assay (LANCE TR-FRET); type: biochemical;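 also: kinase reactions with ATP and a poly-GT peptide substrate, phosphorylated product read by time-resolved FRET, 11-point curve from 10^−11 to 10^−5 M, DMSO as negative control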
INSR = INSR (Homo sapiens (Human), UniProt P06213); test: In vitro kinase activity assay (LANCE TR-FRET); type: biochemical
K299 lymphoma cells = test: Cellular assay, 3 day cell viability (WST-1); type: cell-based; details: 3 days
U937 lymphoma cells = test: Cellular assay, 3 day cell viability (WST-1); type: cell-based; details: Homo sapiens, U-937, 72 h, 3 days, WST-1
ALK (WT) = ALK (WT) (Homo sapiens (Human), UniProt Q9UM73); test: Cell free kinase assay (Carna Biosciences kinases); type: biochemical
EML4-ALK BaF3 cells = test: BaF3 stables cell viability (WST-1)
TrkB = TrkB (Homo sapiens (Human), UniProt Q16620); test: In vitro kinase activity assay (LANCE TR-FRET); type: biochemical
ROS = ROS (Homo sapiens (Human), UniProt P08922); test: In vitro kinase activity assay (LANCE TR-FRET); type: biochemical; details: read-out: ROS (nM) IC50
RET = RET (Homo sapiens (Human), UniProt P07949); test: In vitro kinase activity assay (LANCE TR-FRET); type: biochemical; details: read-out: RET (nM) IC50
SUDHL-1 lymphoma cells = test: Cellular assay, 3 day cell viability (WST-1); type: cell-based; details: 3 days, WST-1
NB-1 neuroblastoma cells = test: Cellular assay, 3 day cell viability (WST-1); type: cell-based; details: 72 h, 3 days, WST-1, read-out: NB-1 IC50
[1] = Metabolic stability, Phase I microsome reactions; type: in vitro ADME, mouse; details: mouse, pH 7.4, Phase I only, 1.0 mg/ml microsomes, read-out: Mouse LM-P1 Half-life;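 as to Rat LM-P1 Half-life (min): compound at 0.5 µM incubated with rat liver microsomes (1.0 mg/ml protein) plus NADPH regenerating system at 37 °C, sampled up to 60 min, remaining parent quantified by LC-MS/MS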
[2] = Caco-2 cell permeation study; type: in vitro ADME; details: human, Caco-2, 10 μM;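 also: Caco-2 monolayers grown for 21–28 days with integrity confirmed by TEER, apical buffer HBSS with MES, basolateral buffer HBSS with HEPES, compound levels quantified by LC/MS/MS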
[3] = Rat pharmacokinetics / bioavailability; type: in vivo
[4] = microsomes, 0.5 μM, pH 7.4
in vitro [5] = details: human, microsomes; for microsomal CLint at 0.5 μM: pH 7.4, Human LM-P1 CL (ul/min/mg); for half-life at 0.5 μM: pH 7.4, Human LM-P1 Half-life (min)
in vitro [6] = details: rat, microsomes; for half-life at 0.5 μM: pH 7.4; for microsomal CLint at 0.5 μM: pH 7.4, Rat LM-P1 CL (ul/min/mg)
Mouse pharmacokinetics = details: for AUC: plasma, 10 mg/kg
[7] = Guinea pig pharmacokinetics; details: for AUC(0-t): plasma, 10 mg/kg
[8] = system: NPM-ALK R1275Q BaF3 cells; test: BaF3 stables cell viability (WST-1); details: Mus musculus, BaF3, read-out: BaF3 Stables IC50 nM R1275Q
FLT3-ITD BaF3 cells = test: BaF3 stables cell viability (WST-1); details: Mus musculus, BaF3, read-out: BaF3 Stables IC50 nM FLT3-ITD
[9] = Metabolic stability, Phase I microsome reactions; details: rat, microsomes;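 as to Rat LM-P1 Half-life (min): compound at 0.5 µM incubated with rat liver microsomes (1.0 mg/ml protein) plus NADPH regenerating system at 37 °C, sampled up to 60 min, remaining parent quantified by LC-MS/MS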
[10] = molecular target: T1, hERG (human ether-a-go-go related gene) potassium channel (Homo sapiens (Human), UniProt Q12809); test: hERG potassium channel current, automated patch clamp (PatchXpress 7000A);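 also: Four-point series of 0.3, 3, 10 and 30 µM, two cells recorded per concentration, 5 min exposure at each level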
hERG potassium channel [11] = molecular target: T2, hERG potassium channel (Homo sapiens (Human), UniProt Q12809); test: as above; details: human; for inhibition at 5 min, 30 µM: 30 μM (low solubility at this concentration)
[12] = molecular target: T1, hERG (human ether-a-go-go related gene) potassium channel; details: 5 min
hERG potassium channel [13] = molecular target: T2, hERG potassium channel; test: in vitro
IGF1R = IGF1R (Homo sapiens (Human), UniProt P08069); test: In vitro kinase activity assay (LANCE TR-FRET); type: biochemical
TrkA = TrkA (Homo sapiens (Human), UniProt P04629); test: In vitro kinase activity assay (LANCE TR-FRET); type: biochemical;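 also: kinase reaction with poly-GT peptide substrate and ATP, phosphorylated product quantified by time-resolved FRET, eleven-point dose curves from 10^−11 to 10^−5 M in triplicate, DMSO as negative control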
TrkC = TrkC (Homo sapiens (Human), UniProt Q16288); test: In vitro kinase activity assay (LANCE TR-FRET); type: biochemical; details: read-out: GTx-TrKC IC50
[14] = microsomes, 0.5 μM, pH 7.4; remark: listed apart in the source
[15] = system: EML4-ALK C1156Y BaF3 cells; test: BaF3 stables cell viability (WST-1); details: read-out: BaF3 Stables IC50 nM C1156Y; EML4-ALK construct
[16] = system: EML4-ALK R1275Q BaF3 cells; test: BaF3 stables cell viability (WST-1); details: read-out: BaF3 Stables IC50 nM R1275Q; EML4-ALK construct
[17] = male, Sprague-Dawley, plasma, iv, 10 mg/kg I.V.
[18] = male, Sprague-Dawley, plasma, po, 10 mg/kg P.O.
[19] = Individual Data Points (% Inhibition)
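For Human LM-P1 Half-life (min) in this document: liver microsomes at 1.0 mg/ml with NADPH regenerating system, 37 °C, sampled at 0, 5, 10, 30 and 60 min, parent compound quantified by LC-MS/MS.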

T2 sequence (Q12809 whole entry): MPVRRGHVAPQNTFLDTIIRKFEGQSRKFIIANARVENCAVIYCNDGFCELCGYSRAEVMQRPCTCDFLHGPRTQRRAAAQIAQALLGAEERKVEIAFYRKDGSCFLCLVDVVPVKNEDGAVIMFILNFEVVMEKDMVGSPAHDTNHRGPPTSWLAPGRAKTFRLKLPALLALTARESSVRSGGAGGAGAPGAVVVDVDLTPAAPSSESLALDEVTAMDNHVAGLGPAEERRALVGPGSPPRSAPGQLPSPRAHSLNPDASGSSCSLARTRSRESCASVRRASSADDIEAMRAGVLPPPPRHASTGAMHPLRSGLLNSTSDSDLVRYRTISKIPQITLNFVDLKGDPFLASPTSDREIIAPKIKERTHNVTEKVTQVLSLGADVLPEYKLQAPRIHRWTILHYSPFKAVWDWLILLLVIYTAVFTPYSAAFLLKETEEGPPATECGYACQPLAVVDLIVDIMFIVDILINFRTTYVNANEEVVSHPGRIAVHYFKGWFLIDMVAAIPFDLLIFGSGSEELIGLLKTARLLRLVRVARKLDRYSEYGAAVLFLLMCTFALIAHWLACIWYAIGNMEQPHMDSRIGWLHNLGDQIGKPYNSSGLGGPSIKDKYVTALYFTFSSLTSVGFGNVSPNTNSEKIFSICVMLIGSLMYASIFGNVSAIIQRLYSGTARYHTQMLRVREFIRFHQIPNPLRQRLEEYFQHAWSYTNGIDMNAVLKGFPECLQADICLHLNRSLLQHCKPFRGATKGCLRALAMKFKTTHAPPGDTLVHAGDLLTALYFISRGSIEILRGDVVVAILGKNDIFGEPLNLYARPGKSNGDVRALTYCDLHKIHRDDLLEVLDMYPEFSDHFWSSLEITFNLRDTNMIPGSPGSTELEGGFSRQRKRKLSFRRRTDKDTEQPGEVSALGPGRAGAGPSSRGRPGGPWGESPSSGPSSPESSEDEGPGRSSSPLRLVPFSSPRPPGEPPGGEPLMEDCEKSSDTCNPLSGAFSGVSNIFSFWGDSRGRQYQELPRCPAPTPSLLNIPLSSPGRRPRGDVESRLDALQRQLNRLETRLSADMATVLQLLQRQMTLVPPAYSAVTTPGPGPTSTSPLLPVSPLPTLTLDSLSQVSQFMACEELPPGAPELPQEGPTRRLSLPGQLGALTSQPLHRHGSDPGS
T1 sequence (Q12809 whole entry): as above
TrkA, sequence (P04629 33-796): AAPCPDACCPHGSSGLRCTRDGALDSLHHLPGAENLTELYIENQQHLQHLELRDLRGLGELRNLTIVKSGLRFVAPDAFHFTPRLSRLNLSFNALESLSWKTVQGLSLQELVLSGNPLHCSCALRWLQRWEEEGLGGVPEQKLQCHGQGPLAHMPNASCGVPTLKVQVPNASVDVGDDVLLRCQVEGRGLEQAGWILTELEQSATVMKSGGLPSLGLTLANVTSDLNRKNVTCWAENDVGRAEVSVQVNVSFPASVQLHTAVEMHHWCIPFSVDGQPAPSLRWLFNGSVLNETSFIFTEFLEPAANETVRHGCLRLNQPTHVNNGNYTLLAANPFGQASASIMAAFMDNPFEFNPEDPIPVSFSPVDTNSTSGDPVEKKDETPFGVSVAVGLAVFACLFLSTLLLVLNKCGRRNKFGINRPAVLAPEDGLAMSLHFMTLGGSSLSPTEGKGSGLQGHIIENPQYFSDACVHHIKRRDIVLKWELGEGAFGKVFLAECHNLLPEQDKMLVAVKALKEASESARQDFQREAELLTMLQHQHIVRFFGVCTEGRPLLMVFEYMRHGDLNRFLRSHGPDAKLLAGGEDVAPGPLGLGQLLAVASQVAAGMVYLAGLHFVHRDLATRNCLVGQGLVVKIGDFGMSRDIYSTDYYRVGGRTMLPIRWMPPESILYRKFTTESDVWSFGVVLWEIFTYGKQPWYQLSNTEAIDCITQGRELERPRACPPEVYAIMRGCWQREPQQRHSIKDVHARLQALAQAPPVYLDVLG
ALK, sequence (Q9UM73 19-1620): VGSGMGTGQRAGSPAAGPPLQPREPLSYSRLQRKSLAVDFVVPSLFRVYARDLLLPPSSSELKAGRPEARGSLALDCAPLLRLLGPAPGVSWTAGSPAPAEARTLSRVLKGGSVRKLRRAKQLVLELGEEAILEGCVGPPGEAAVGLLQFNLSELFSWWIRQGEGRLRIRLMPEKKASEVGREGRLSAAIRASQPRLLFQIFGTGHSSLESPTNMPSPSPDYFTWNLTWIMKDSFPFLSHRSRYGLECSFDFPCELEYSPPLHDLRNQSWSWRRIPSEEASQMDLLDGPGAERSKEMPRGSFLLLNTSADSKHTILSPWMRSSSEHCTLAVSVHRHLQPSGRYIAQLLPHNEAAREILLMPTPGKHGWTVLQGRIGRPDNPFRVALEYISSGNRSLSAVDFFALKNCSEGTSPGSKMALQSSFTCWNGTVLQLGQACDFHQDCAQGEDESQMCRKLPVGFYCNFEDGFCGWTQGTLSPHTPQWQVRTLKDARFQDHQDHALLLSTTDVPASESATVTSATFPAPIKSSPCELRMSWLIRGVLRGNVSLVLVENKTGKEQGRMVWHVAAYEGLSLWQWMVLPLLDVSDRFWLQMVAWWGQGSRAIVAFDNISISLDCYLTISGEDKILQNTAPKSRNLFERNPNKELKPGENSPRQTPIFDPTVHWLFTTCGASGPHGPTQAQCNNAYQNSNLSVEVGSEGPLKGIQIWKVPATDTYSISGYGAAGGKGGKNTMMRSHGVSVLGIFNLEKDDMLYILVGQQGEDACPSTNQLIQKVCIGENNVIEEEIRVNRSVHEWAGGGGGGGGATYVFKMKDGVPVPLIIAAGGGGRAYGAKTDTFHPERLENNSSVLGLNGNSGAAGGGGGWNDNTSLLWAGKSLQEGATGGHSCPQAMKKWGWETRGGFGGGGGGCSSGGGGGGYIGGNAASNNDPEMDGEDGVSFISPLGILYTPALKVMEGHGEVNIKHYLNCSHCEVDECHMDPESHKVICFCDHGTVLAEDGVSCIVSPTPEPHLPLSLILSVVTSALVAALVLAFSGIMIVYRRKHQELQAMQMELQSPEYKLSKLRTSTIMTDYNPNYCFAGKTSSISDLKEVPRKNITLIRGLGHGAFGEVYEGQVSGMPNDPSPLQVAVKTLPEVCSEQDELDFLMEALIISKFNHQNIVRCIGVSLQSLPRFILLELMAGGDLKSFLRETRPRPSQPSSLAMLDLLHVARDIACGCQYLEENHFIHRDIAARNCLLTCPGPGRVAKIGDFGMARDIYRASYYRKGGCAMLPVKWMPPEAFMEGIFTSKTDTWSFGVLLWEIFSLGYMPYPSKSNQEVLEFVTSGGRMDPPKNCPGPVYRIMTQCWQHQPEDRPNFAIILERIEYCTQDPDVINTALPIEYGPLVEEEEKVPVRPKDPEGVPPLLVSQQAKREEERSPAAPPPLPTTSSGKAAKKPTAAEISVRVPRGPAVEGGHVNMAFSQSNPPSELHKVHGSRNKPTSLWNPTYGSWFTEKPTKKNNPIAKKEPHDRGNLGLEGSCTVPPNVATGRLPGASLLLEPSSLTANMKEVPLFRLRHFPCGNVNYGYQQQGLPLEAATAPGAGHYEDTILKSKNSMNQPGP

Compound: COc1cc([C@@H]2c3cc4c(cc3[C@H](O)[C@H]3COC(=O)[C@@H]23)OCO4)cc(OC)c1OC (racemic) [PPP, reference compound]
- IC50 (ALK; read-out: ALK IC50): > 10000 nM
- IC50 (ALK; read-out: GTx-ALK IC50): > 10000 nM
- IC50 (INSR; read-out: GTx-IRK IC50): > 10000 nM
- IC50 (K299 lymphoma cells; 72 h, read-out: GTx-K299 IC50): 196 nM
- IC50 (K299 lymphoma cells; 72 h, read-out: K299 IC50): 196 nM
- IC50 (U937 lymphoma cells; read-out: GTx-U937 IC50): 138 nM
- IC50 (U937 lymphoma cells; read-out: U937 IC50): 138 nM

Compound: C[C@@H](Cc1c(F)c(F)cc(F)c1F)Nc1cc[nH]c(=O)c1-c1nc2cc3c(cc2[nH]1)CN(CCN(C)C)C3=O (single isomer, unassigned) [Compound 1 R isomer]
- cell free activity (in words) (ALK (WT)): inactive
- IC50 (EML4-ALK BaF3 cells; Mus musculus, BaF3, read-out: BaF3 Stables IC50 nM EML4-ALK): 1060 nM

Compound: C[C@@H](Cc1c(F)c(F)cc(F)c1F)Nc1cc[nH]c(=O)c1-c1nc2cc3c(cc2[nH]1)CN(CCN(C)C)C3=O [Compound 1, (S)-6-(2-(Dimethylamino)ethyl)-2-(2-oxo-4-((1-(2,3,5,6-tetrafluorophenyl)propan-2-yl)amino)-1,2-dihydropyridin-3-yl)-6,7-dihydroimidazo[4,5-f]isoindol-5(3H)-one]
- IC50 (TrkB; read-out: TrkB (nM) IC50): 2.06 nM
- IC50 (ROS): 0.205 nM
- IC50 (RET): 3.53 nM
- IC50 (K299 lymphoma cells; 72 h, read-out: K299 IC50): 76 nM
- IC50 (K299 lymphoma cells; read-out: K299 IC50): 73 nM
- IC50 (U937 lymphoma cells; read-out: U937 IC50): 1600 nM
- IC50 (SUDHL-1 lymphoma cells; read-out: SUDHL-1 IC50): 22 nM
- IC50 (NB-1 neuroblastoma cells): 177 nM
- half-life at 0.5 μM [1]: 0.14 h
- Papp A→B at 2 h, 10 μM ([2]; apical pH 6.5, 2 h): < 0.2 ×10⁻⁶ cm/s
- Papp B→A at 2 h, 10 μM ([2]; basolateral pH 7.4, 2 h): 19.9 ×10⁻⁶ cm/s
- IV_AUC0-1440 Rat 10 mpk ([3]; 10 mg/kg I.V.): 329 µg·min/mL
- PO_AUC0-1440 Rat 10 mpk ([3]; 10 mg/kg P.O.): 0.943 µg·min/mL
- MRT [3, 17]: 22.7 h
- clearance [3, 17]: 25.5 mL/min/kg
- half-life [3, 17]: 22.1 h
- Vd ([3]; male, Sprague-Dawley, plasma, iv, 10 mg/kg I.V., read-out: Vss): 23.9 L/kg
- Cmax [3, 18]: 2.21 ng/mL
- Tmax [3, 18]: 1.88 h
- bioavailability ([3]; male, Sprague-Dawley, plasma, po, 10 mg/kg P.O., read-out: Rat F %): 0.287%
- Human LM-P1 Half-life [4]: >2 h
- microsomal CLint at 0.5 μM (in vitro [5]): 5.87 µL/min/mg
- half-life at 0.5 μM (in vitro [5]): 1.97 h
- half-life at 0.5 μM (in vitro [6]): 8.43 min
- microsomal CLint at 0.5 μM (in vitro [6]): 82.2 µL/min/mg
- F (Dog pharmacokinetics; 5 mg/kg PO): 12%
- AUC(0-t) (Dog pharmacokinetics; plasma, iv, 1 mg/kg): 483 ng·h/mL
- AUC (Dog pharmacokinetics; plasma, po, 5 mg/kg): 287 ng·h/mL
- F (Mouse pharmacokinetics; 10 mg/kg SC): 30%
- AUC (Mouse pharmacokinetics; iv): 1770 ng·h/mL
- AUC (Mouse pharmacokinetics; sc): 522 ng·h/mL
- F ([7]; 10 mg/kg PO): 1%
- AUC(0-t) ([7]; iv): 3570 ng·h/mL
- AUC(0-t) ([7]; po): 37.2 ng·h/mL
- IC50 [8]: 279 ± 21 nM
- IC50 (FLT3-ITD BaF3 cells): > 3 nM
- microsomal CLint at 0.5 μM ([9]; pH 7.4): 100 µL/min/mg
- half-life at 0.5 μM ([9]; pH 7.4, Rat LM-P1 Half-life (min), Phase I only, 0.5 μM, 1.0 mg/ml microsomes): 6.99 min
- IC50 [10]: 6250 nM
- Individual Data Points (% Inhibition) ([10]; 0.3 μM): 5.0%
- Individual Data Points (% Inhibition) ([10]; 3 μM): 36.3%
- Individual Data Points (% Inhibition) ([10]; 10 μM): 49.4%
- Individual Data Points (% Inhibition) ([10]; 30 μM (low solubility at this concentration)): 62.7%
- inhibition at 5 min, 0.3 µM (hERG potassium channel [11]; [19]): 5.9%
- inhibition at 5 min, 3 µM (hERG potassium channel [11]; [19]): 43.6%
- inhibition at 5 min, 10 µM (hERG potassium channel [11]; [19]): 59.4%
- inhibition at 5 min, 30 µM (hERG potassium channel [11]; [19]): 71.1%
- inhibition at 5 min, 0.3 µM (hERG potassium channel [11]; Mean % hERG Inhibition): 5.5%
- inhibition at 5 min, 3 µM (hERG potassium channel [11]; Mean % hERG Inhibition): 39.9%
- inhibition at 5 min, 10 µM (hERG potassium channel [11]; Mean % hERG Inhibition): 54.4%
- inhibition at 5 min, 30 µM (hERG potassium channel [11]; Mean % hERG Inhibition): 66.9%

Compound: C[C@@H](Cc1c(F)c(F)cc(F)c1F)Nc1cc[nH]c(=O)c1-c1nc2cc3c(cc2[nH]1)CN(CCN1CCCC1)C3=O [Compound 3]
- Individual Data Points (% Inhibition) ([12]; 0.3 µM): 11.2%
- Individual Data Points (% Inhibition) ([12]; 3 µM): 49.7%
- Individual Data Points (% Inhibition) ([12]; 10 µM): 70.8%
- Individual Data Points (% Inhibition) ([12]; 30 µM): 81.7%
- inhibition at 5 min, 0.3 µM (hERG potassium channel [13]; [19]): 13.2%
- inhibition at 5 min, 3 µM (hERG potassium channel [13]; [19]): 49.1%
- inhibition at 5 min, 10 µM (hERG potassium channel [13]; [19]): 75.7%
- inhibition at 5 min, 30 µM (hERG potassium channel [13]; [19]): 87.2%
- inhibition at 5 min, 0.3 µM (hERG potassium channel [13]; Mean % hERG Inhibition): 12.2%
- inhibition at 5 min, 3 µM (hERG potassium channel [13]; Mean % hERG Inhibition): 49.4%
- inhibition at 5 min, 10 µM (hERG potassium channel [13]; Mean % hERG Inhibition): 73.3%
- inhibition at 5 min, 30 µM (hERG potassium channel [13]; Mean % hERG Inhibition): 84.4%
- IC50 [10]: 3170 nM

Compound: C[C@@H](Cc1cc(F)cc(F)c1F)Nc1cc[nH]c(=O)c1-c1nc2cc3c(cc2[nH]1)CN(CCN(C)C)C3=O [Compound 31]
- IC50 (ALK; read-out: ALK IC50): 1 nM
- IC50 (IGF1R): 299 nM
- IC50 (INSR; read-out: IRK IC50): 578 nM
- IC50 (TrkA; read-out: TrKA IC50): 4 nM
- IC50 (K299 lymphoma cells; 72 h, read-out: K299 IC50): 154 nM
- IC50 (U937 lymphoma cells; read-out: U937 IC50): 2200 nM
- half-life at 0.5 μM ([1]; liver microsomes): 0.484 h
- microsomal CLint at 0.5 μM (in vitro [5]): < 5.8 µL/min/mg
- half-life at 0.5 μM (in vitro [5]): > 2 h
- half-life at 0.5 μM (in vitro [6]): 8.7 min
- microsomal CLint at 0.5 μM (in vitro [6]): 79.9 µL/min/mg

Compound: Cc1ccc(F)cc1CC(C)Nc1cc[nH]c(=O)c1-c1nc2cc3c(cc2[nH]1)CN(C)C3=O (centres unmarked) [Compound 44, 2-(4-(1-(5-Fluoro-2-methylphenyl)propan-2-ylamino)-2-oxo-1,2-dihydropyridin-3-yl)-6-methyl-6,7-dihydroimidazo[4,5-f]isoindol-5(1H)-one]
- IC50 (ALK; read-out: GTx-ALK IC50): 37 nM
- IC50 (TrkA; read-out: GTx-TrKA IC50): 4 nM
- IC50 (TrkB; read-out: GTx-TrKB IC50): 4 nM
- IC50 (TrkC): 1 nM
- IC50 (K299 lymphoma cells; 72 h, read-out: GTx-K299 IC50): 798 nM
- IC50 (U937 lymphoma cells; read-out: GTx-U937 IC50): > 3000 nM
- IC50 (SUDHL-1 lymphoma cells; Homo sapiens, SU-DHL-1, 72 h, read-out: GTx-SUDHL-1 IC50): 829 nM

Compound: (S)-6-(1-Methylpiperidin-4-yl)-2-(2-oxo-4-(1-(2,3,5,6-tetrafluorophenyl)propan-2-ylamino)-1,2-dihydropyridin-3-yl)-6,7-dihydroimidazo[4,5-f]isoindol-5(3H)-one [Compound 4]
- IC50 (ALK; read-out: ALK (nM) IC50): 9.81 nM
- IC50 (ALK; read-out: GTx-ALK IC50): 10 nM
- IC50 (TrkA; read-out: TrkA (nM) IC50): 5 nM
- Rat LM-P1 Half-life [14]: >2 h
- IC50 (EML4-ALK BaF3 cells; read-out: BaF3 Stables IC50 nM EML4-ALK, EML4-ALK parent construct): 143 ± 6 nM
- IC50 [15]: 283 ± 43 nM
- IC50 [16]: 288 ± 20 nM

— patent US8822500B2, “Tyrosine kinase inhibitors” (Chembridge Corporation, priority 2008, dated 2014)
